Reference: the supplement of paper PMC10307832

Tests used:
Experiment in all cases: relative viability (nuclei count vs DMSO), 5 days (fraction); higher = more cells survive
[1] = test system: NCI-H322M
How it was run: (§1)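 Relative viability is defined as nuclei in treated wells over nuclei in vehicle wells. Duplicate plates were run and medians reported. Lung cancer cell lines in 1536-well plates were dosed by pin tool one day after seeding, with one drug or with a fixed anchor-drug dose plus five library-drug doses (not always all listed) in √10 steps, and nuclei were counted after 5 days.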

[2] = test system: HCC-44
How it was run: as §1

[3] = test system: NCI-H1395
How it was run: as §1

[4] = test system: SK-LU-1
How it was run: as §1

[5] = test system: NCI-H727
How it was run: as §1

[6] = test system: BEN
How it was run: as §1

[7] = test system: NCI-H2228
How it was run: as §1

[8] = test system: HOP-62
How it was run: as §1

[9] = test system: 201T
How it was run: as §1

[10] = test system: NCI-H2087
How it was run: as §1

[11] = test system: NCI-H647
How it was run: as §1

[12] = test system: LXF-289
How it was run: as §1

[13] = test system: LCLC-103H
How it was run: as §1

[14] = test system: LCLC-97TM1
How it was run: as §1

[15] = test system: NCI-H2023
How it was run: as §1

[16] = test system: HCC-827
How it was run: as §1

[17] = test system: NCI-H2405
How it was run: as §1

[18] = test system: RERF-LC-KJ
How it was run: as §1

[19] = test system: NCI-H3122
How it was run: as §1

[20] = test system: NCI-H1355
How it was run: as §1

[21] = test system: NCI-H1793
How it was run: as §1

[22] = test system: NCI-H1437
How it was run: as §1

[23] = test system: CAL-12T
How it was run: as §1

## C[C@@H]1CN(CC(=O)Nc2ccc3c(c2)Cc2cccc(-c4cc(=O)cc(N5CCOCC5)o4)c2S3)C[C@H](C)O1 + Cc1nc(NC(=O)N2CCC[C@H]2C(N)=O)sc1-c1ccnc(C(C)(C)C(F)(F)F)c1 [Alpelisib] (partner 2 µM)
[1]; first compound 0.04 µM
  relative viability: 0.844
[1]; first compound 0.1265 µM
  relative viability: 0.833
[1]; first compound 0.4 µM
  relative viability: 0.832
[1]; first compound 4 µM
  relative viability: 0.839
[2]; first compound 0.04 µM
  relative viability: 0.774
[2]; first compound 0.1265 µM
  relative viability: 0.744
[2]; first compound 0.4 µM
  relative viability: 0.615
[2]; first compound 4 µM
  relative viability: 0.582
[3]; first compound 0.04 µM
  relative viability: 0.958
[3]; first compound 0.1265 µM
  relative viability: 1.08
[3]; first compound 0.4 µM
  relative viability: 1.05
[3]; first compound 4 µM
  relative viability: 1.08
[4]; first compound 0.04 µM
  relative viability: 1.21
[4]; first compound 0.1265 µM
  relative viability: 1.05
[4]; first compound 0.4 µM
  relative viability: 0.936
[4]; first compound 4 µM
  relative viability: 0.645
[5]; first compound 0.04 µM
  relative viability: 0.685
[5]; first compound 0.1265 µM
  relative viability: 0.612
[5]; first compound 0.4 µM
  relative viability: 0.502
[5]; first compound 4 µM
  relative viability: 0.479
[6]; first compound 0.04 µM
  relative viability: 1
[6]; first compound 0.1265 µM
  relative viability: 0.968
[6]; first compound 0.4 µM
  relative viability: 1.03
[6]; first compound 4 µM
  relative viability: 1.04
[7]; first compound 0.04 µM
  relative viability: 0.708
[7]; first compound 0.1265 µM
  relative viability: 0.707
[7]; first compound 0.4 µM
  relative viability: 0.754
[7]; first compound 4 µM
  relative viability: 0.485
[8]; first compound 0.04 µM
  relative viability: 1.08
[8]; first compound 0.1265 µM
  relative viability: 1.05
[8]; first compound 0.4 µM
  relative viability: 0.939
[8]; first compound 4 µM
  relative viability: 1.07
[9]; first compound 0.04 µM
  relative viability: 1.04
[9]; first compound 0.1265 µM
  relative viability: 1.02
[9]; first compound 0.4 µM
  relative viability: 0.943
[9]; first compound 4 µM
  relative viability: 0.95
[10]; first compound 0.04 µM
  relative viability: 1.49
[10]; first compound 0.1265 µM
  relative viability: 1.2
[10]; first compound 0.4 µM
  relative viability: 1.2
[10]; first compound 4 µM
  relative viability: 0.837
[11]; first compound 0.04 µM
  relative viability: 1.26
[11]; first compound 0.1265 µM
  relative viability: 1.08
[11]; first compound 0.4 µM
  relative viability: 1.08
[11]; first compound 4 µM
  relative viability: 0.766
[12]; first compound 0.04 µM
  relative viability: 1.04
[12]; first compound 0.1265 µM
  relative viability: 1
[12]; first compound 0.4 µM
  relative viability: 0.996
[12]; first compound 4 µM
  relative viability: 1.02
[13]; first compound 0.04 µM
  relative viability: 1.02
[13]; first compound 0.1265 µM
  relative viability: 0.892
[13]; first compound 0.4 µM
  relative viability: 0.845
[13]; first compound 4 µM
  relative viability: 1.02
[14]; first compound 0.1265 µM
  relative viability: 0.225
[14]; first compound 0.4 µM
  relative viability: 0.237
[14]; first compound 4 µM
  relative viability: 0.238
[15]; first compound 0.04 µM
  relative viability: 0.69
[15]; first compound 0.1265 µM
  relative viability: 0.579
[15]; first compound 0.4 µM
  relative viability: 0.407
[15]; first compound 4 µM
  relative viability: 0.473
[16]; first compound 0.04 µM
  relative viability: 1.02
[16]; first compound 0.1265 µM
  relative viability: 0.988
[16]; first compound 0.4 µM
  relative viability: 0.938
[16]; first compound 4 µM
  relative viability: 0.978
[17]; first compound 0.04 µM
  relative viability: 0.899
[17]; first compound 0.1265 µM
  relative viability: 0.818
[17]; first compound 0.4 µM
  relative viability: 0.769
[17]; first compound 4 µM
  relative viability: 0.698
[18]; first compound 0.04 µM
  relative viability: 0.869
[18]; first compound 0.1265 µM
  relative viability: 0.764
[18]; first compound 0.4 µM
  relative viability: 0.774
[18]; first compound 4 µM
  relative viability: 0.792
[19]; first compound 0.04 µM
  relative viability: 0.861
[19]; first compound 0.1265 µM
  relative viability: 0.682
[19]; first compound 0.4 µM
  relative viability: 0.629
[19]; first compound 4 µM
  relative viability: 0.699
[20]; first compound 0.04 µM
  relative viability: 0.856
[20]; first compound 0.1265 µM
  relative viability: 0.759
[20]; first compound 0.4 µM
  relative viability: 0.862
[20]; first compound 4 µM
  relative viability: 0.827
[21]; first compound 0.04 µM
  relative viability: 0.717
[21]; first compound 0.1265 µM
  relative viability: 0.614
[21]; first compound 0.4 µM
  relative viability: 0.514
[21]; first compound 4 µM
  relative viability: 0.585
[22]; first compound 0.04 µM
  relative viability: 1.04
[22]; first compound 0.1265 µM
  relative viability: 1.01
[22]; first compound 0.4 µM
  relative viability: 0.813
[22]; first compound 4 µM
  relative viability: 0.797
[23]; first compound 0.04 µM
  relative viability: 1.33
[23]; first compound 0.1265 µM
  relative viability: 1.37
[23]; first compound 0.4 µM
  relative viability: 1.19
[23]; first compound 4 µM
  relative viability: 0.841
